Laboratory results taken from ChEMBL document CHEMBL1201862, “PubChem BioAssay data set” (2004).
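Five concentrations, 48 hours, 96-well plates. Here, GI50 denotes the concentration required for 50% inhibition of growth.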 Calls of active or inactive are those of the source. Cut-off read from the data, not from the text of the source: active = GI50 up to about 1.1 µM and inactive = higher.

Columns and labels:
Test in all cases: DTP human tumour cell line panel, 48 h
786-0 = system: 786-0
CAKI-1 = system: CAKI-1
COLO 205 = system: COLO 205
HCT-15 = system: HCT-15
HOP-62 = system: HOP-62
IGROV-1 = system: IGROV-1
K562 = system: K562
KM12 = system: KM12
MDA-MB-231 = system: MDA-MB-231
Malme-3M = system: Malme-3M
NCI-H460 = system: NCI-H460
OVCAR-3 = system: OVCAR-3
OVCAR-4 = system: OVCAR-4
OVCAR-8 = system: OVCAR-8
SF-539 = system: SF-539
SNB-19 = system: SNB-19
TK-10 = system: TK-10
U-251 = system: U-251
HCC 2998 = system: HCC 2998
SK-MEL-2 = system: SK-MEL-2

## N=C(CC(=O)NOC(=O)c1ccccc1)NOC(=O)c1ccccc1
786-0
  GI50: > 100 µM (inactive)
CAKI-1
  GI50: 36.9 µM (inactive)
COLO 205
  GI50: 26.6 µM (inactive)
HCT-15
  GI50: 38.5 µM
HOP-62
  GI50: 44.8 µM (inactive)
IGROV-1
  GI50: 14.7 µM (inactive)
K562
  GI50: 28.5 µM (inactive)
KM12
  GI50: 46 µM (inactive)
MDA-MB-231
  GI50: > 100 µM (inactive)
Malme-3M
  GI50: > 100 µM (inactive)
NCI-H460
  GI50: 31.1 µM (inactive)
OVCAR-3
  GI50: 96.8 µM (inactive)
OVCAR-4
  GI50: 18.3 µM (inactive)
OVCAR-8
  GI50: 27.9 µM (inactive)
SF-539
  GI50: 22.1 µM (inactive)
SNB-19
  GI50: 71.6 µM (inactive)
TK-10
  GI50: 52 µM (inactive)
U-251
  GI50: 34.1 µM (inactive)

## COc1cc(S(=O)(=O)Nc2ccc(-c3csc(N4C(=O)C(Cl)C4c4ccccc4O)n3)cc2)ccc1Cl (centres undefined)
786-0
  GI50: 35.1 µM (inactive)
CAKI-1
  GI50: > 100 µM (inactive)
COLO 205
  GI50: 23.9 µM (inactive)
HCC 2998
  GI50: 15.1 µM (inactive)
HCT-15
  GI50: > 100 µM
HOP-62
  GI50: > 100 µM (inactive)
IGROV-1
  GI50: 11.9 µM (inactive)
K562
  GI50: 31 µM (inactive)
KM12
  GI50: 33 µM (inactive)
Malme-3M
  GI50: 24.1 µM (inactive)
NCI-H460
  GI50: 47.5 µM (inactive)
OVCAR-3
  GI50: > 100 µM (inactive)
OVCAR-4
  GI50: 26.4 µM (inactive)
OVCAR-8
  GI50: 53.6 µM (inactive)
SF-539
  GI50: 30.5 µM (inactive)
SK-MEL-2
  GI50: 37.8 µM (inactive)
SNB-19
  GI50: > 100 µM (inactive)

## COC(=O)c1cc2c3c(ccc2[nH]1)N(C(=O)c1cc2c4c(ccc2[nH]1)N(C(=O)c1cc2c5c(ccc2[nH]1)N(C(N)=O)CC5)CC4)CC3
786-0
  GI50: 3.05 µM (inactive)
CAKI-1
  GI50: 2 µM (inactive)
COLO 205
  GI50: 2.72 µM (inactive)
HCC 2998
  GI50: 5.45 µM (inactive)
HCT-15
  GI50: 12 µM
HOP-62
  GI50: 2.29 µM (inactive)
IGROV-1
  GI50: 3.37 µM (inactive)
K562
  GI50: 2.44 µM (inactive)
KM12
  GI50: 6.82 µM (inactive)
Malme-3M
  GI50: 1.24 µM (inactive)
NCI-H460
  GI50: 3.24 µM (inactive)
OVCAR-3
  GI50: 3.9 µM (inactive)
OVCAR-4
  GI50: 3.55 µM (inactive)
SF-539
  GI50: 3.6 µM (inactive)
SK-MEL-2
  GI50: 3.18 µM (inactive)
SNB-19
  GI50: 2.61 µM (inactive)
TK-10
  GI50: 13.1 µM (inactive)
U-251
  GI50: 2.17 µM (inactive)

## Cc1ccc(C(=O)C(C)N)cc1 (centres undefined)
786-0
  GI50: > 100 µM (inactive)
CAKI-1
  GI50: > 100 µM (inactive)
COLO 205
  GI50: > 100 µM (inactive)
HCC 2998
  GI50: > 100 µM (inactive)
HCT-15
  GI50: > 100 µM
HOP-62
  GI50: > 100 µM (inactive)
IGROV-1
  GI50: > 100 µM (inactive)
K562
  GI50: > 100 µM (inactive)
KM12
  GI50: > 100 µM (inactive)
Malme-3M
  GI50: > 100 µM (inactive)
NCI-H460
  GI50: > 100 µM (inactive)
OVCAR-3
  GI50: > 100 µM (inactive)
OVCAR-4
  GI50: > 100 µM (inactive)
OVCAR-8
  GI50: > 100 µM (inactive)
SF-539
  GI50: > 100 µM (inactive)
SK-MEL-2
  GI50: > 100 µM (inactive)
SNB-19
  GI50: > 100 µM (inactive)
TK-10
  GI50: > 100 µM (inactive)
U-251
  GI50: > 100 µM (inactive)

## Cc1nc(N)nc(N)c1CCCCc1ccc(N)cc1
786-0
  GI50: 0.728 µM (active)
CAKI-1
  GI50: 9.66 µM (inactive)
COLO 205
  GI50: 10.4 µM (inactive)
HCC 2998
  GI50: 3.25 µM (inactive)
HCT-15
  GI50: 4.09 µM
HOP-62
  GI50: 5.11 µM (inactive)
IGROV-1
  GI50: 3.35 µM (inactive)
K562
  GI50: 0.321 µM (active)
KM12
  GI50: 9.35 µM (inactive)
Malme-3M
  GI50: 1.96 µM (inactive)
NCI-H460
  GI50: 0.959 µM (active)
OVCAR-3
  GI50: 5.53 µM (inactive)
OVCAR-4
  GI50: 10.6 µM (inactive)
OVCAR-8
  GI50: 3.18 µM (inactive)
SF-539
  GI50: 7.98 µM (inactive)
SK-MEL-2
  GI50: 9.06 µM (inactive)
SNB-19
  GI50: 6.87 µM (inactive)
TK-10
  GI50: 11.5 µM (inactive)
U-251
  GI50: 3.03 µM (inactive)

## COc1cc(C2(C)SCCCS2)cc(OC)c1OC
786-0
  GI50: > 100 µM (inactive)
CAKI-1
  GI50: > 100 µM (inactive)
COLO 205
  GI50: > 100 µM (inactive)
HCC 2998
  GI50: > 100 µM (inactive)
HCT-15
  GI50: > 100 µM
HOP-62
  GI50: > 100 µM (inactive)
IGROV-1
  GI50: > 100 µM (inactive)
K562
  GI50: > 100 µM (inactive)
KM12
  GI50: > 100 µM (inactive)
Malme-3M
  GI50: > 100 µM (inactive)
NCI-H460
  GI50: > 100 µM (inactive)
OVCAR-3
  GI50: > 100 µM (inactive)
OVCAR-4
  GI50: > 100 µM (inactive)
OVCAR-8
  GI50: > 100 µM (inactive)
SF-539
  GI50: > 100 µM (inactive)
SK-MEL-2
  GI50: > 100 µM (inactive)
SNB-19
  GI50: > 100 µM (inactive)
TK-10
  GI50: > 100 µM (inactive)
U-251
  GI50: > 100 µM (inactive)

## Cc1cc(N(CCC#N)CCC#N)ccc1/C=C1\N=C(c2cc([N+](=O)[O-])ccc2Cl)N(NC(=O)c2ccc(/N=C\c3ccc(N(CCC#N)S(C)(=O)=O)cc3C)cc2)C1=O
786-0
  GI50: > 100 µM (inactive)
CAKI-1
  GI50: > 100 µM (inactive)
COLO 205
  GI50: > 100 µM (inactive)
HCC 2998
  GI50: > 100 µM (inactive)
HCT-15
  GI50: 33 µM
HOP-62
  GI50: 63.5 µM (inactive)
IGROV-1
  GI50: > 100 µM (inactive)
K562
  GI50: 31.9 µM (inactive)
KM12
  GI50: > 100 µM (inactive)
Malme-3M
  GI50: > 100 µM (inactive)
NCI-H460
  GI50: > 100 µM (inactive)
OVCAR-3
  GI50: > 100 µM (inactive)
OVCAR-4
  GI50: > 100 µM (inactive)
OVCAR-8
  GI50: > 100 µM (inactive)
SF-539
  GI50: > 100 µM (inactive)
SK-MEL-2
  GI50: > 100 µM (inactive)
SNB-19
  GI50: > 100 µM (inactive)
TK-10
  GI50: > 100 µM (inactive)
U-251
  GI50: > 100 µM (inactive)
